According to US20250346550A1, “METHODS OF MODULATING ENDONUCLEASE G USING RESVERATROL AND ITS DERIVATIVES” (THE REGENTS OF THE UNIVERSITY OF COLORADO A BODY CORPORATE, priority 2022, published 2025):

Tests used:
Format in all cases: in vivo, C. elegans
[1] = toxicity observed in animal assays; conditions: neuronal death and tumor assays, 100 μM
Excerpt: As described above, Applicant's successfully synthesized a new compound, stabilized cis-resveratrol.

[2] = tested on: α-synuclein-induced dopaminergic neuronal death in baIn11 animals; experiment: α-synuclein-based Parkinson's Disease model, DA neuronal death; conditions: 100 μM, adult day 2 baIn11 animals vs 0.25% ethanol
Excerpt: FIG. 8. […] In each experiment, 300 animals were scored to determine the percentage of animals losing at least one dopaminergic neuron in the head. Data are mean±s.e.m. *P<0.05; ***P<0.001, two-sided, unpaired t-test.
FIG. 13. […] In each experiment, 300 animals were scored to determine the percentage of animals losing at least one of the six dopaminergic neurons in the head. Data are mean±s.e.m. ****P<0.001, two-sided, unpaired t-test.
In addition to PME and apoptosis, EndoG was previously shown to play an important role in mediating dopaminergic (DA) neuronal death induced by expression of human α-synuclein, which is widely considered to be a major proponent of Parkinson's disease. However, the mechanism by which EndoG mediates α-synuclein-induced neurodegeneration is unclear. In a C. elegans α-synuclein-based Parkinson's Disease model, co-expression of GFP and human α-synuclein in C. elegans dopaminergic neurons under the control of the promoter of the dat-1 gene, which encodes a dopamine transporter, from an integrated transgene baIn11 (Pdat-1::gfp/Pdat-1::α-synuclein) caused DA neuronal death in 30% of adult baIn11 animals (FIG. 8a). The cps-6(tm3222) mutation blocked DA neuronal death in adult baIn11 animals (FIG. 8a), confirming that CPS-6 is important for α-synuclein-induced DA neuronal death.

[3] = tested on: germline tumor in daf-16(mu86); cki-2(ok2105); glp-1(ar202) mutant (ET507); experiment: germline tumor model (ET507); conditions: 100 μM, ET507 at 20° C., vs 0.25% ethanol (FIG. 14)
Procedure: FIG. 9. Cis-resveratrol inhibits and trans-resveratrol promotes germline tumor formation. Tumor size and tumor occurring frequency of the daf-16(mu86); cki-2(0k2105); glp-1 (ar202) mutant grown at 20° C. and treated with 1% ethanol (Mock), 200 μM cis-resveratrol (Cis), and 200 μM trans-resveratrol (Trans), respectively, are shown. Tumor assays were performed in triplicate with 100 animals per replicate. a, A five-stage classification was created to measure the tumor size in adult day 5 animals under the Normaski optic. Score 1 denotes the normal gonads seen in wild-type animals. Score 5 denotes enlarged gonads full of mitotic germ cells and without any egg or oocyte. Score 2-4 denote partially enlarged gonads. b, Tumor frequency indicates the percentage of animals with enlarged gonads (score 5). Data from three independent biological replicates are shown as mean±SEM. *P<0.05; **P<0.01; ***P<0.001, two-sided, unpaired t-test.
FIG. 14. stabilized cis-resveratrol inhibits germline tumor formation as well as cis-resveratrol. Tumor occurring frequency of the daf-16 (mu86); cki-2 (0k2105); glp-1 (ar202) mutant (ET507) grown at 20° C. and treated with 0.25% ethanol (Mock), 100 μM cis-resveratrol, and 100 μM Stabilized cis-resveratrol, respectively, are shown. Tumor assays were performed in triplicate with 100 animals per replicate. Data are mean±s.e.m. ****P<0.001, two-sided, unpaired t-test
The present inventors tested whether resveratrol isomers affect tumorigenesis in a C. elegans germline tumor model (ET507), in which three cell growth genes, daf-16, cki-2, and glp-1, are mutated, leading to uncontrolled germ cell proliferation and germline tumor.

In the case of `O=C1CCC(c2ccc(O)cc2)=C1c1cc(O)cc(O)c1` [stabilized cis-resveratrol], the “toxicity in animal assays” value [1] is reported as “No obvious toxicity was observed”, the “effect on α-synuclein-induced DA neuronal death” value [2] is reported as “comparable activity as cis-resveratrol in strongly suppressing” and the germline tumor formation [3] is reported as “comparable activity as cis-resveratrol in strongly suppressing”.
